The values below are quoted from earlier work in patent US20070104792A1, “Nanoparticulate tadalafil formulations” (Elan Pharma International, Limited, priority 2005, published 2007).

The conditions of the series: conventional crystalline solid.

For the compound `CN1CC(=O)N2[C@H](c3ccc4c(c3)OCO4)c3[nH]c4ccccc4c3C[C@@H]2C1=O` [tadalafil, pyrazino[1′,2′:1,6]pyrido[3,4-b]indole-1,4-dione, 6-(1,3-benzodioxol-5-yl)-2,3,6,7,12,12a-hexahydro-2-methyl-, (6R,12aR)], the Solubility in ethanol result (ethanol) is “very slightly soluble in ethanol”. In addition, the Solubility in water entry (water) is reported as “practically insoluble in water”.
